Legend:
[1] = Test for water solubility; type: physicochemical; conditions: water
Excerpt: 3. Test for water solubility
A standard plot of UV absorbance(220 nm) vs. concentration was made; and employed to determine water-solubility.
The mixture was then passed through a 0.45 micron disposable membrane filter before dilution and UV measurement.

ICR mice = assay: Acute toxicity test; type: in vivo; design: Lethality: unit not given here; conditions: for Lethality: 10080 min
Experimental: 7-week-old ICR mice(male: 34±2 g; female: 31±2 g) were fed with solid food and water under the condition of 23±1° C. temperature and 65±5% humidity before the test.
Each treatment group consisted of 6 mice. The test compounds were administered intraperitoneally.
For 7 days after the administration, the appearance and the fate of the tested animals were recorded. The dead animals were subjected to autopsy and their visible pathological changes were observed. Their viscerals were stored in 10% formalin solution.

murine leukemia L1210 = assay: Antitumor activity test on murine leukemia L1210 in vivo; design: species or system male BDF1 mice; conditions: days 1, 5, 9
Method in brief: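 Male BDF1 mice (6 weeks, 21±3 g; n=7) received 1×10^6 leukemia cells into the peritoneum on day 0, then test compound suspended or dissolved in 0.5% CMC i.p. on days 1, 5, 9. Activity expressed as T/C %, mean survival treated versus 0.5% CMC-injected controls.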

[2] = test system: murine leukemia L1210 cells; assay: Growth inhibition test on cultured murine leukemia L1210 cells; type: cell-based; conditions: 48 hours, 37° C., Trypan blue viability
Method in brief: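 Read-out is Trypan blue (0.17%) viability versus compound-free controls. Cells, 1×10^5, were cultured 48 h at 37° C under 5% CO2 in RPMI 1640/10% FCS containing various compound concentrations.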

NC[C@H]1OC2(CCCCC2)O[C@@H]1CN.O=C1C[O][Pt][O]1 [Example 4, (glycolato-O,O'){cyclohexanespiro-2'-[(4'R,5'R)-4',5'-bis(aminomethyl)-1',3'-dioxolane]}-platinum(II)]
Solubility in water [1]: 2.9 mg/mL | Number of dead mice for 7 days (ICR mice; female, 25.0 mg/kg i.p.): 0/6 | Number of dead mice, 1st day (ICR mice; female, 25.0 mg/kg i.p.): 0/6 | Number of dead mice for 7 days (ICR mice; female, 32.5 mg/kg i.p.): 0/6 | Number of dead mice, 1st day (ICR mice; female, 32.5 mg/kg i.p.): 0/6 | Number of dead mice for 7 days (ICR mice; female, 42.3 mg/kg i.p.): 0/6 | Number of dead mice, 1st day (ICR mice; female, 42.3 mg/kg i.p.): 0/6 | Number of dead mice for 7 days (ICR mice; female, 55.0 mg/kg i.p.): 2/6 | Number of dead mice, 1st day (ICR mice; female, 55.0 mg/kg i.p.): 0/6 | Number of dead mice, 3rd day (ICR mice; female, 55.0 mg/kg i.p.): 1/6 | Number of dead mice, 4th day (ICR mice; female, 55.0 mg/kg i.p.): 1/5 | Lethality (ICR mice; female, 55.0 mg/kg i.p.): 33.3 | Number of dead mice for 7 days (ICR mice; female, 71.4 mg/kg i.p.): 4/6 | Number of dead mice, 1st day (ICR mice; female, 71.4 mg/kg i.p.): 0/6 | Number of dead mice, 2nd day (ICR mice; female, 71.4 mg/kg i.p.): 2/6 | Number of dead mice, 3rd day (ICR mice; female, 71.4 mg/kg i.p.): 1/4 | Number of dead mice, 4th day (ICR mice; female, 71.4 mg/kg i.p.): 1/3 | Lethality (ICR mice; female, 71.4 mg/kg i.p.): 66.7 | Number of dead mice for 7 days (ICR mice; male, 25.0 mg/kg i.p.): 0/6 | Number of dead mice, 1st day (ICR mice; male, 25.0 mg/kg i.p.): 0/6 | Number of dead mice for 7 days (ICR mice; male, 32.5 mg/kg i.p.): 0/6 | Number of dead mice, 1st day (ICR mice; male, 32.5 mg/kg i.p.): 0/6 | Number of dead mice for 7 days (ICR mice; male, 42.3 mg/kg i.p.): 0/6 | Number of dead mice, 1st day (ICR mice; male, 42.3 mg/kg i.p.): 0/6 | Number of dead mice for 7 days (ICR mice; male, 55.0 mg/kg i.p.): 3/6 | Number of dead mice, 1st day (ICR mice; male, 55.0 mg/kg i.p.): 0/6 | Number of dead mice, 2nd day (ICR mice; male, 55.0 mg/kg i.p.): 2/6 | Number of dead mice, 3rd day (ICR mice; male, 55.0 mg/kg i.p.): 1/4 | Lethality (ICR mice; male, 55.0 mg/kg i.p.): 50.0 | Number of dead mice for 7 days (ICR mice; male, 71.4 mg/kg i.p.): 4/6 | Number of dead mice, 1st day (ICR mice; male, 71.4 mg/kg i.p.): 0/6 | Number of dead mice, 2nd day (ICR mice; male, 71.4 mg/kg i.p.): 3/6 | Number of dead mice, 3rd day (ICR mice; male, 71.4 mg/kg i.p.): 1/3 | Lethality (ICR mice; male, 71.4 mg/kg i.p.): 66.7 | T/C (%) (murine leukemia L1210; 3.1 mg/kg i.p.): 102% | T/C (%) (murine leukemia L1210; 6.2 mg/kg i.p.): 146% | T/C (%) (murine leukemia L1210; 12.5 mg/kg i.p.): 233% | T/C (%) (murine leukemia L1210; 25 mg/kg i.p.): 231% | T/C (%) (murine leukemia L1210; 50 mg/kg i.p.): toxic | IC50 (concentration required for 50% inhibition of growth) [2]: 0.08 µg/mL

CCC1(CC)OC2C[NH2+][Pt-2]3([NH2+]CC2O1)[O]CC(=O)[O]3 [Example 8, (glycolato-O,O')[(4R,5R)-4,5-bis(aminomethyl)-2,2-diethyl-1,3-dioxolane]platinum(II)]
Solubility in water [1]: > 30 mg/mL | Number of dead mice for 7 days (ICR mice; female, 41.3 mg/kg i.p.): 0/6 | Number of dead mice, 1st day (ICR mice; female, 41.3 mg/kg i.p.): 0/6 | Lethality (ICR mice; female, 41.3 mg/kg i.p.): 0.0 | Number of dead mice for 7 days (ICR mice; female, 54.9 mg/kg i.p.): 3/6 | Number of dead mice, 1st day (ICR mice; female, 54.9 mg/kg i.p.): 0/6 | Number of dead mice, 3rd day (ICR mice; female, 54.9 mg/kg i.p.): 1/6 | Number of dead mice, 4th day (ICR mice; female, 54.9 mg/kg i.p.): 2/5 | Lethality (ICR mice; female, 54.9 mg/kg i.p.): 50.0 | Number of dead mice for 7 days (ICR mice; female, 71.4 mg/kg i.p.): 5/6 | Number of dead mice, 1st day (ICR mice; female, 71.4 mg/kg i.p.): 0/6 | Number of dead mice, 4th day (ICR mice; female, 71.4 mg/kg i.p.): 2/6 | Number of dead mice, 5th day (ICR mice; female, 71.4 mg/kg i.p.): 3/4 | Lethality (ICR mice; female, 71.4 mg/kg i.p.): 83.7 | Number of dead mice for 7 days (ICR mice; female, 91.8 mg/kg i.p.): 6/6 | Number of dead mice, 1st day (ICR mice; female, 91.8 mg/kg i.p.): 0/6 | Number of dead mice, 2nd day (ICR mice; female, 91.8 mg/kg i.p.): 1/6 | Number of dead mice, 3rd day (ICR mice; female, 91.8 mg/kg i.p.): 3/5 | Number of dead mice, 4th day (ICR mice; female, 91.8 mg/kg i.p.): 2/2 | Lethality (ICR mice; female, 91.8 mg/kg i.p.): 100.0 | Number of dead mice for 7 days (ICR mice; male, 41.3 mg/kg i.p.): 0/6 | Number of dead mice, 1st day (ICR mice; male, 41.3 mg/kg i.p.): 0/6 | Lethality (ICR mice; male, 41.3 mg/kg i.p.): 0.0 | Number of dead mice for 7 days (ICR mice; male, 54.9 mg/kg i.p.): 4/6 | Number of dead mice, 1st day (ICR mice; male, 54.9 mg/kg i.p.): 0/6 | Number of dead mice, 3rd day (ICR mice; male, 54.9 mg/kg i.p.): 2/6 | Number of dead mice, 4th day (ICR mice; male, 54.9 mg/kg i.p.): 2/4 | Lethality (ICR mice; male, 54.9 mg/kg i.p.): 66.7 | Number of dead mice for 7 days (ICR mice; male, 71.4 mg/kg i.p.): 5/6 | Number of dead mice, 1st day (ICR mice; male, 71.4 mg/kg i.p.): 0/6 | Number of dead mice, 3rd day (ICR mice; male, 71.4 mg/kg i.p.): 1/6 | Number of dead mice, 4th day (ICR mice; male, 71.4 mg/kg i.p.): 4/5 | Lethality (ICR mice; male, 71.4 mg/kg i.p.): 83.3 | Number of dead mice for 7 days (ICR mice; male, 91.8 mg/kg i.p.): 6/6 | Number of dead mice, 1st day (ICR mice; male, 91.8 mg/kg i.p.): 0/6 | Number of dead mice, 2nd day (ICR mice; male, 91.8 mg/kg i.p.): 2/6 | Number of dead mice, 3rd day (ICR mice; male, 91.8 mg/kg i.p.): 4/4 | Lethality (ICR mice; male, 91.8 mg/kg i.p.): 100.0 | T/C (%) (murine leukemia L1210; 3.1 mg/kg i.p.): 154% | T/C (%) (murine leukemia L1210; 6.2 mg/kg i.p.): 198% | T/C (%) (murine leukemia L1210; 12.5 mg/kg i.p.): 245% | T/C (%) (murine leukemia L1210; 25 mg/kg i.p.): toxic | T/C (%) (murine leukemia L1210; 50 mg/kg i.p.): toxic | IC50 (concentration required for 50% inhibition of growth) [2]: 0.06 µg/mL
